Test results reported in patent US20130059814A1, “ANTI-INFLAMMATORY DERMATOLOGICAL COMPOSITION COMPRISING CORTICOSTEROIDS AND HYALURONATE FRAGMENTS, AND USES THEREOF” (priority 2007, published 2013).

Experiments:
Hairless SKH mice = experiment: Skin atrophy protocol: dermis-epidermis thickness after topical corticosteroid with or without HA fragments; assay type: in vivo
Excerpt: Hairless SKH mice received twice daily for 5 days a topical treatment on the back with a steroid (0.05% clobetasol propionate or 0.1% desonide) with or without HA fragments (with a molecular weight comprised between 20 and 500 kDa, and obtained by the method including the treatment steps with ultrasound and filtering as described above). These fragments will be designated in the following examples by HAF. Dermal and epidermal atrophy and the concentration of skin hyaluronate were respectively determined by measuring the dermis-epidermis thickness in optical microscopy and by ELISA.
The epidermal and cutaneous (distance between the granular layer and the sweating glands) thicknesses were measured by an ocular micrometer. Ten measurements were made per mouse. The prevention index is the ratio between the control treated with clobetasol propionate (PC) alone and the PC +HAF composition.
The epidermal thickness was measured with an ocular micrometer after treatment with different desonide concentrations. Ten measurements were made per mouse. The prevention index is the ratio, at a determined corticosteroid concentration, between the control treated by the corticosteroid alone and by the corticosteroid composition+HAF.
The epidermal thickness was measured with an ocular micrometer after treatment with different corticosteroids. Ten measurements were made per mouse. The prevention index is the ratio between the control treated by the corticosteroid alone and the corresponding composition comprising the HAFs.
The non-treated hyaluronic acid, the fragments obtained by action of hyaluronidase, as well as the HAFs were compared for their preventive effects. The epidermal thickness was measured with an ocular micrometer. Ten measurements were made per mouse. The prevention index is the ratio between the control treated with the corticosteroid alone and with each corticosteroid composition+HAF.

C57B1/6 mice = experiment: Inflammation induced by TPA in the ear of mice: epidermis and dermis thickness, dermal cellularity; assay type: in vivo; conditions: 0.005% TPA on ears, PC 0.05%, HAF 1%, 4 days
Protocol: (§1) Skin inflammation was induced by topical application of 0.005% TPA (12-o-tetradecanoylphorbol-13-acetate) in acetone, on the ears of C57B1/6 mice; the control animals received the same volume of acetone. Clobetasol propionate (0.05%) and the HAFs (1%) were dissolved in 100 μL of carrier, and were applied together with TPA for 4 days; the control animals received the same volume of carrier. The inflammation was determined by measuring the thickness of the ears with a clip and the dermis-epidermis thickness in optical microscopy and by assaying myeloperoxidase activity. The animals were sacrificed 24 hrs after the last application. 6 mm biopsies were sampled, frozen in liquid nitrogen and then stored at −70° C. until the day of the analysis. The remainder of the tissue was set with formol and analyzed by immunohistology.
The epidermal inflammation induced by the application of Phorbol TPA ester was measured, after application of TPA, and then after treatment with clobetasol propionate, and after treatment with the composition comprising clobetasol propionate and HAFs. Ten measurements were made per mouse. The anti-inflammation index is the ratio between the control treated with TPA, and with the composition TPA+PC or TPA+PC+HAF.
The dermal inflammation induced by applying Phorbol TPA ester was measured, after application of TPA, and then after treatment with clobetasol propionate and after treatment with the composition comprising clobetasol propionate and HAFs. Ten measurements were made per mouse, the results are grouped in the Table 6 below. The anti-inflammation index in the ratio between the control treated with TPA, and with the association TPA+PC or TPA+PC+HAF.
Dermal cellularity induced by applying Phorbol TPA ester was measured, after application of TPA, and then after treatment with clobetasol propionate, and after treatment with the composition comprising clobetasol propionate and HAFs. Ten measurements were made per mouse. The anti-inflammation index is the ratio between the control treated with TPA, and with the association TPA+PC or TPA+PC+HAF.

myeloperoxidase = experiment: Myeloperoxidase activity in supernatant of homogenates of TPA-treated ear biopsies; assay type: in vivo, mice; conditions: 0.005% TPA on ears, PC 0.05%, HAF 1%, 4 days
Protocol: as §1
The myeloperoxidase activity was determined in the supernatant of the homogenates of the ear biopsies. […] The enzymatic activity of myeloperoxidase was determined according to the method of Bradley et al., modified for using the photometric plate reader. […] The optical density was measured at 450 nm. […] The expression of CD44, CD44v3 and pro-HB-EGF was analyzed by immunohistochemistry and by Western blotting according to methods already described (PLoS Med 3 (12): e493, 2006). […]

hairless SKH1 mice = conditions: JEADV 19: 124, 2005; cited from earlier work
[1] = Table 3: corticosteroid 0.05%, with or without HAF

SMILES: C[C@H]1C[C@H]2[C@@H]3CCC4=CC(=O)C=C[C@]4(C)[C@@]3(F)[C@@H](O)C[C@]2(C)[C@@]1(O)C(=O)CO [Betamethasone]
- Epidermal thickness % of non-treated control (Hairless SKH mice; [1]): 53 % of non-treated control

SMILES: CC1(C)O[C@@H]2C[C@H]3[C@@H]4CCC5=CC(=O)C=C[C@]5(C)[C@H]4[C@@H](O)C[C@]3(C)[C@]2(C(=O)CO)O1 [Desonide, desonide]
- Epidermal thickness % of non-treated control (Hairless SKH mice; Desonide 0.025%, HAF 0 or 1%): 72 % of non-treated control
- Epidermal thickness % of non-treated control (Hairless SKH mice; Desonide 0.05%, HAF 0 or 1%): 62 % of non-treated control
- Epidermal thickness % of non-treated control (Hairless SKH mice; Desonide 0.075%, HAF 0): 55 % of non-treated control
- Epidermal thickness % of non-treated control (Hairless SKH mice; Desonide 0.1%, HAF 0 or 1%): 46 % of non-treated control
- Epidermal thickness % of non-treated control (Hairless SKH mice; [1]): 62 % of non-treated control
- Epidermal thickness % of non-treated control (Hairless SKH mice; Table 4: Desonide 0.1% alone or with HA form): 46 % of non-treated control

SMILES: CCC(=O)O[C@]1(C(=O)CCl)[C@@H](C)C[C@H]2[C@@H]3CCC4=CC(=O)C=C[C@]4(C)[C@@]3(F)[C@@H](O)C[C@@]21C [PC, clobetasol propionate]
- Cutaneous thickness % of non-treated control (Hairless SKH mice; PC 0.05%, HAF 1% where present, distance between granular layer and sweating glands): 56 % of non-treated control
- Epidermal thickness % of non-treated control (Hairless SKH mice; PC 0.05%, HAF 1% where present, topical on the back twice daily for 5 days): 33 % of non-treated control
- Epidermal thickness % of non-treated control (Hairless SKH mice; [1]): 28 % of non-treated control
- Epidermal thickness % of non-treated control (Hairless SKH mice; Table 4: 0.05% Clobetasol alone or with HA form): 28 % of non-treated control

SMILES: CCCCCCCCCCCCCC(=O)O[C@@H]1[C@@H](C)[C@@]2(O)[C@@H](C=C(CO)C[C@]3(O)C(=O)C(C)=C[C@@H]23)[C@@H]2C(C)(C)[C@]12OC(C)=O [TPA, 12-o-tetradecanoylphorbol-13-acetate]
- Dermal cellularity % of control (C57B1/6 mice): 789 % of control
- Dermis inflammation % of non-treated control (C57B1/6 mice): 226 % of non-treated control
- Epidermis inflammation % of control (C57B1/6 mice): 438 % of control
- myeloperoxidase % of control (myeloperoxidase): 3273 % of control

SMILES: CC1=C(/C=C/C(C)=C/C=C/C(C)=C/C=O)C(C)(C)CCC1 [retinaldehyde]
- Prevention of epidermal atrophy induced by clobetasol propionate (hairless SKH1 mice): prevents epidermal atrophy induced by a corticosteroid, clobetasol propionate
